According to patent US7727553B2, “Oral preparations with favorable disintegration characteristics” (Dainippon Sumitomo Pharma Co., Ltd., priority 2000, dated 2010):

Test: physchem
Conditions: for solubility at 30 min: 22.5 °C, thermodynamic from solid
Protocol: According to the method disclosed in the Pharmacopoeia of Japan, the solubility (μg/ml) of Compound 1 was measured when treated for 30 minutes under the following conditions. • (1) Conditions for measurement of solubility:
Solvent: Diluted McIlvaine buffer

solubility of Compound 1 (in words): quite low
solubility at 30 min (pH 3, aqueous buffer): > 20 µg/mL
solubility at 30 min (pH 4, aqueous buffer): 8.2 µg/mL
solubility at 30 min (pH 5, aqueous buffer): 0.7 µg/mL
SMILES: Cl.O=C1[C@@H]2[C@H]3CC[C@H](C3)[C@@H]2C(=O)N1C[C@@H]1CCCC[C@H]1CN1CCN(c2nsc3ccccc23)CC1 [Compound 1, N-[4-[4-(1,2-benzisothiazol-3-yl)-1-piperazinyl]-(2R, 3R)-2,3-tetramethylenebutyl]-(1′R, 2′S, 3′R, 4′S)-2,3-bicyclo[2.2.1]heptanedicarboximide hydrochloride]
